Experimental data taken from patent US20260248763A1 (BIO GENUINE (SHANGHAI) BIOTECH CO., LTD, priority 2023, published 2026).

molecular target: T1, OTR (Homo sapiens, UniProt P30559); experiment: Ca2+ mobilization in cells stably expressing OTR (FLIPR, antagonist mode); type: cell-based; conditions: OTR/HEK293 stably transfected cell line
T1 construct: expressed in transfected cells; host or cells: OTR/HEK293 stably transfected cell line
T1 sequence (P30559 1-389): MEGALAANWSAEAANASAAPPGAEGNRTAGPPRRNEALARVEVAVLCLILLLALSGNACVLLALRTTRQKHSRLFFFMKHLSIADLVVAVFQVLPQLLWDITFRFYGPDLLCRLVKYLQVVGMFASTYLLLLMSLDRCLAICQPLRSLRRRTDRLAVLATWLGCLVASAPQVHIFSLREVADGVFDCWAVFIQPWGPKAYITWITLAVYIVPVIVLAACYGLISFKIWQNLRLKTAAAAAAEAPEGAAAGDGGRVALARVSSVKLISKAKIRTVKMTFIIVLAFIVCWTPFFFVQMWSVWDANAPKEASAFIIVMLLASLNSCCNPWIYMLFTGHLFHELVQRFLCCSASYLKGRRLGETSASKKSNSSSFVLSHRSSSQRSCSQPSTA
From the text: Test Example 1. Determination of the Effect of the Compound of the Present Disclosure on Ca^2+ Mobilization in Cells Stably Expressing OTR
To measure the antagonistic effect of the compound of the present disclosure on OTR activity expressed in the OTR/HEK293 stably transfected cell line.
• DMEM medium (Invitrogen, 11965) • F12 medium (Invitrogen, 11765) • Fetal bovine serum (Excell, FSP500) • Geneticin (Invitrogen, 10131) • Penicillin/Streptomycin (Invitrogen, SV30010) • Fluo-4 Direct kit (Invitrogen, F10471) • 384-well cell plate (Greiner, 781090) • 384-well compound plate (Greiner, 781280)
• FLIPR instrument (Molecular Device) • EHCO instrument (Labcyte) • Cell counter (Beckman, Vi-cell XR)
The cultured cells were washed twice with pre-heated DPBS and digested with appropriate amount of trypsin at 37° C. for 1 minute, and then appropriate amount of culture medium was added to terminate digestion. The cells were centrifuged at 1000 rpm for 5 minutes. The supernatant was gently discarded without disturbing the cell pellet at the bottom. The cells were resuspended in culture medium and 1 mL was taken out for cell counting and viability assessment using Vi-CELL™. The cells were diluted to 1×10^6 cells/mL (20,000 cells/20 μL) with culture medium, seeded into a 384-well cell plate and incubated at 37° C. with 5% CO2 for 16-20 h.
Formulation of 250 mM Probenecid solution: according to the kit instructions, 1 mL of FLIPR buffer salt solution was added to 77 mg of probenecid, prepared fresh just before use. Formulation of Fluo-4 Direct™ (2×, 8 μM) loading buffer: according to the kit instructions, the required amount of Fluo-4 Direct™ was taken out and thawed in advance, 10 mL of FLIPR buffer salt solution and 0.2 mL of 250 mM Probenecid solution were added to each tube, and the mixture was vortexed in the dark for >5 minutes, prepared fresh just before use.
Preparation of agonist reference compound plate: the agonist was diluted 3-fold in 10 points using ECHO, and 750 nL was transferred to the corresponding compound plate using ECHO.
Preparation of reference and test compound plates: the test compound was diluted 3-fold in 10 points with ECHO, and 900 nL was transferred to the corresponding compound plate; the reference compound was diluted 3-fold in 10 points with assay buffer salt solution, and 30 μL was transferred to the compound plate.
30 μL of assay buffer salt solution was added to the corresponding compound plate, and the mixture was centrifuged at 1000 rpm for 1 minute.
The cell plate prepared the day before was taken out of the incubator, and 20 μL of 2×Fluo-4 Direct™ buffer was added to each well, with a total volume of 40 μL.
The plate was incubated in an incubator at 37° C. with 5% CO2 for 50 minutes, and then placed at room temperature for 10 minutes.
The compound plate, cell plate, and pipette tips were placed into the instrument.
For the agonist reference compound plate: the FLIPR instrument software was run, 10 μL of the pre-determined concentration of agonist reference compound was added to the cell plate following the preset protocol, and the fluorescence signal was read. After reading, the data were exported to calculate the EC80 for each cell line, and the agonist at 6×EC80 concentration was prepared.
For the compound plate: the FLIPR instrument software was run, 10 μL of the pre-determined concentration of test compound and the reference compound were added to the cell plate following the preset protocol, and the fluorescence signal was read. 10 μL of the reference compound agonist at 6×EC80 concentration was added to the cell plate, and the fluorescence signal was read. For antagonist detection of the compound, the data were exported using the “Max-Min” and “Read 1 to Maximum allowed” methods in the software, and the data were fitted using Prism.

**Q.** CO/N=C1\C[C@@H](CO)N(C(=O)c2ccc(-c3cccc(C#N)c3C)cc2C)C1 [Example A0244, 3-(4-[(2S,4E)-2-(Hydroxymethyl)-4-(methoxyimino)pyrrolidine-1-carbonyl]-3-methylphenyl)-2-methylbenzonitrile] was tested. Which IC50 did it give?
**A.** 42.8 nM

**Q.** CO/N=C1\C[C@@H](CNC(=O)CO)N(C(=O)c2ccc(-c3ccccc3C)cc2)C1 [Example C0005, (S, E)-2-Hydroxy-N-((4-(methoxyimino)-1-(2′-methyl-[1,1′-biphenyl]-4-carbonyl)pyrrolidin-2-yl)methyl)acetamide] was tested. Which IC50 did it give?
**A.** 1790 nM

**Q.** With CO/N=C1/C[C@@H](CO)N(C(=O)c2ccc(-c3cccc(C#N)c3C)s2)C1 [Example A0212, 3-(5-[(2S, 4Z)-2-(Hydroxymethyl)-4-(methoxyimino)pyrrolidine-1-carbonyl]thien-2-yl)-2-methylbenzonitrile] as the compound, how does the IC50 read?
**A.** 384 nM

**Q.** CO/N=C1\CCN(C(=O)c2ccc(-c3cccc(C#N)c3C)cc2)[C@H](CO)C1 [Example A0226, (S,E)-4′-(2-(Hydroxymethyl)-4-(methoxyimino)piperidine-1-carbonyl)-2-methyl-[1,1′-biphenyl]-3-carbonitrile] was tested. Which IC50 did it give?
**A.** 1050 nM

**Q.** With CO/N=C1/C[C@@H](CO)N(C(=O)c2ccc(-c3cccc(C)c3C)c(=O)n2C)C1 [Example C0103, (S,Z)-3-(2,3-Dimethylphenyl)-6-(2-(hydroxymethyl)-4-(methoxyimino)pyrrolidine-1-carbonyl)-1-methylpyridin-2(1H)-one] as the compound, how does the IC50 read?
**A.** 1480 nM

**Q.** For CO/N=C1/C[C@@H](CO)N(C(=O)c2cc(=O)n(-c3cccc(C)c3C)cn2)C1 [Example C0077, (S, Z)-3-(2,3-Dimethylphenyl)-6-(2-(hydroxymethyl)-4-(methoxyimino)pyrrolidine-1-carbonyl)pyrimidin-4(3H)-one], which IC50 is on record?
**A.** 673 nM

**Q.** How did the IC50 turn out when CON=C1CC(C(=O)NCC(O)c2ccccc2)N(C(=O)c2ccc(-c3cccc(C#N)c3C)cc2)C1 (single isomer, unassigned) [Example A0229, (25, E)-1-(3′-Cyano-2′-methyl-[1,1′-biphenyl]-4-carbonyl)-N-(2-hydroxy-2-phenethyl)-4-(methoxyimino)pyrrolidine-2-carboxamide] was run?
**A.** 122 nM

**Q.** How did the IC50 turn out when CNC(=O)[C@@H]1C/C(=N/OC)CN1C(=O)c1ccc(-c2cccc(C#N)c2C)cc1 [Example A0228, (S, Z)-1-(3′-Cyano-2′-methyl-[1,1′-biphenyl]-4-carbonyl)-4-(methoxyimino)-N-methylpyrrolidine-2-carboxamide] was run?
**A.** 432 nM

**Q.** For CO/N=C1\CN(C(=O)c2ccc(-c3ccccc3C)cc2)[C@@]2(CCNC2=O)C1 [Example C0039, (S, Z)-3-(Methoxyimino)-1-(2′-methyl-[1,1′-biphenyl]-4-carbonyl)-1,7-diazaspiro[4.4]nonan-6-one], which IC50 is on record?
**A.** 295 nM

**Q.** How did the IC50 turn out when CO/N=C1\C[C@@H](CO)N(C(=O)c2ccc(-c3cccc(C)c3C)cc2C#N)C1 [Example A0153, 5-(2,3-Dimethylphenyl)-2-[(2S, 4E)-2-(hydroxymethyl)-4-(methoxyimino)pyrrolidine-1-carbonyl]benzonitrile] was run?
**A.** 485 nM

**Q.** For CO/N=C1/C[C@@H](CNC(=O)OC)N(C(=O)c2ccc(-c3ccccc3C)cc2)C1 [Example C0007, Methyl (S, Z)-((4-(methoxyimino)-1-(2′-methyl-[1,1′-biphenyl]-4-carbonyl)pyrrolidin-2-yl)methyl)carbamate], which IC50 is on record?
**A.** 534 nM

**Q.** Which IC50 does the source give for CO/N=C1/C[C@@H](CNC(=O)CO)N(C(=O)c2ccc(-c3ccccc3C)cc2)C1 [Example C0008, (S, Z)-2-Hydroxy-N-((4-(methoxyimino)-1-(2′-methyl-[1,1′-biphenyl]-4-carbonyl)pyrrolidin-2-yl)methyl)acetamide] here?
**A.** 1010 nM

**Q.** For CO/N=C1/C[C@@H](CO)N(C(=O)c2ccc(-c3cccc(C#N)c3C)c(N3CCOCC3)n2)C1 [Example A0198, (S, Z)-3-(6-(2-(Hydroxymethyl)-4-(methoxyimino)pyrrolidine-1-carbonyl)-2-morpholinopyridin-3-yl)-2-methylbenzonitrile], which IC50 is on record?
**A.** 967 nM

**Q.** For CO/N=C1/C[C@@H](CO)N(C(=O)c2cnc(-c3cccc(C)c3C)c(C(F)(F)F)n2)C1 [Example A0137], which IC50 is on record?
**A.** 153 nM
